Values after ≈ are worked out from the molar mass of the structure shown.
How the values were obtained:
[1] = test system: restraint stress-induced defecation in the acetic acid-induced IBS model; assay: Restraint stress-induced defecation in the acetic acid-induced IBS model; format: in vivo, rat; conditions: for ED50: Rattus norvegicus, male SD rats, 4% acetic acid IBS model, 30 min before restraint, stools for 1 hour; for ED50 / inhibitory effects on restraint stress-induced defecation (dose dependence): compound 1 po, cromolyn ip; for inhibitory effects on restraint stress-induced defecation (dose dependence): FIGS. 2 and 3
Procedure: (§1) Preparation of an IBS model was carried out by the following method with reference to the method of Jun-Ho La et al. (World J. Gastroenterol., 2003, vol. 9 (12), pp. 2791-2795). Male Sprague-Dawley (SD) rats or Wistar rats after an overnight fast were used. Colitis was induced by intracolonic instillation of 1 ml 4% acetic acid at 8 cm proximal to the anus for 30 seconds under light ether anesthesia. Then, 1 ml physiological saline was instilled to dilute the acetic acid and flush the colon twice. Rats were recovered from colitis for 6 days, and used for experiments shown in Examples 2 and 3 at 7 days after induction of colitis as “IBS rat (4% acetic acid)”. In addition, rats received physiological saline instead of acetic acid was used as a “control group (saline)”.
Cromolyn was used by dissolving it in physiological saline, and compound 1 and ketotifen were used by dissolving them in 0.5% methylcellulose aqueous solution, respectively. Each compound was intraperitoneally administered (cromolyn) or orally administered (compound 1 and ketotifen) to male SD rats under no fasting at 7 days after the 4% acetic acid treatment or physiological saline treatment. The animals were put into restraint stress cages (product name: KN-468 (B), mfd. by Natsume Seisakusho) 30 minutes thereafter and the number and weight of the stools excreted for 1 hour were measured (“stress”). On the other hand, the normal group was put into individual cage and the number and weight of the stools excreted for 1 hour were measured in the same manner (“normal”). Results of the restraint stress-induced defecation in the agent-nonadministered group are shown in FIG. 1, and the results of agent-administered groups in FIGS. 2 to 4 respectively.

rat abdominal mast cells = assay: Release of histamine by an antigen-antibody reaction using rat abdominal mast cells (degranulation); format: cell-based; conditions: Mast cell, fluorescent method with o-phthalaldehyde, read-out: Degranulation (mast cells) (IC50 μg/ml)
Procedure: In addition, the inhibitory effects of compound 1 and cromolyn on the release of histamine by an antigen-antibody reaction using rat abdominal mast cells were measured by a fluorescent method which is a modified method of Shore et al. (The Journal of Pharmacology and Experimental Therapeutics, 1959, vol. 127, pp. 182-186) with o-phthalaldehyde.

[2] = test system: abdominal contractions caused by colorectal distention in the acetic acid-induced IBS model; assay: Viscerosensory response to colorectal distention (number of abdominal contractions) in the acetic acid-induced IBS model; format: in vivo, rat; conditions: for inhibitory effects on abdominal contractions, concomitant use with alosetron: alosetron 0.1 mg/kg, po + compound 1 0.01 mg/kg, po or cromolyn 20 mg/kg, ip, FIG. 8
Procedure: as §1
Male Wistar rats under no fasting at 7 days after 4% acetic acid treatment or physiological saline treatment were used. Under light ether anesthesia, a latex balloon of 6 cm in length was inserted intra-anally until the end of the balloon was 2 cm inside the rectum. The catheter connecting from the balloon was fixed to the tail base with a tape and connected to a pressure transducer via a three-way cock. After restoration from the ether anesthesia in a cage (23.5×19×19 cm), nociceptive behavior (the number of abdominal contractions) to colorectal distention (15, 30, 45, 60 mmHg) applied stepwise at 5 minute intervals was measured. […] In this connection, each compound was administered 30 minutes before the colorectal distention.

IBS patients = conditions: cited from earlier work
[3] = test system: spontaneous defecation in mice; conditions: mouse, in vivo
Procedure: Doxantrazole was used by dissolving it in 5% (w/v) NaHCO3 aqueous solution, and compound 1 was used by dissolving it in 0.5% methylcellulose aqueous solutions Male ddY mice under no fasting were reared in individual cages from the evening of the previous day of the experiment. On the day of the experiment, each compound was administered intraperitoneally (doxantrazole) or orally (compound 1), and the number of stools spontaneously excreted for 2 hours after the initiation of the experiment was measured.

Row | SMILES | IC50 (rat abdominal mast cells) | effect on the spontaneous defecation in mice [3] | ED50 [1] | inhibitory effects on restraint stress-induced defecation (dose dependence) [1] | inhibitory effects on abdominal contractions, concomitant use with alosetron [2] | other results
1 | Cc1[nH]cnc1CN1CCc2c(c3ccccc3n2C)C1=O [alosetron] |  |  |  |  |  | improvement rate for abdominal symptoms and diarrhea (IBS patients): about 50%; inhibitory effects on abdominal contractions, alosetron alone ([2]; 0.1 mg/kg, po): maximal inhibitory effects
2 | CN1CCC(=C2c3ccccc3CC(=O)c3sccc32)CC1 [ketotifen] |  |  |  |  |  | inhibitory effects on restraint stress-induced defecation at the maximum ([1]; po, maximum effect, FIG. 4): about 30%
3 | O=C1c2ccccc2S(=O)(=O)c2cc(-c3nnn[nH]3)ccc21 [doxantrazole] |  | inhibitory tendency |  |  |  | 
4 | Cn1cc(C(=O)[C@@H]2CCc3nc[nH]c3C2)c2ccccc21 [ramosetron] |  |  |  |  |  | inhibitory effects on abdominal contractions, ramosetron alone ([2]; 0.01 mg/kg, po): maximal inhibitory effects

Second part, led by results:

Row | IC50 (rat abdominal mast cells) | effect on the spontaneous defecation in mice [3] | SMILES | ED50 [1] | inhibitory effects on restraint stress-induced defecation (dose dependence) [1] | inhibitory effects on abdominal contractions, concomitant use with alosetron [2] | other results
5 | 2.2 µg/mL |  | O=C(O)c1cc(=O)c2c(OCC(O)COc3cccc4oc(C(=O)O)cc(=O)c34)cccc2o1 [Cromolyn, sodium cromoglycate] | 19.9 mg/kg | in a dose-dependent manner | reinforcement of the effect was not found | inhibition of restraint stress-induced defecation at 100 mg/kg, ip ([1]; 100 mg/kg, ip): inhibited it almost completely
6 | 0.0074 µg/mL (≈ 0.0212 µM) | no effect | O=C(Nc1nnn[nH]1)c1cc(Oc2ccccc2)c2ccccn2c1=O [Compound 1, N-(1H-tetrazol-5-yl)-1-phenoxy-4H-quinolizin-4-one-3-carboxamide] | 0.0071 mg/kg | in a dose-dependent manner | additively | inhibition of restraint stress-induced defecation at 1 mg/kg, po ([1]; 1 mg/kg, po): inhibited it almost completely; inhibitory effects on abdominal contractions, concomitant use with ramosetron ([2]; compound 1 0.01 mg/kg, po + ramosetron 0.01 mg/kg, po, FIG. 7): additively; inhibitory effects on the abdominal contractions caused by the colorectal distention ([2]; male Wistar rats, 0.01 and 1 mg/kg, po, 30 min before distention, FIG. 6): dose-dependent inhibitory effects

Reference: patent US7842702B2, “Treatment for irritable bowel syndrome” (Astellas Pharma Inc., priority 2007, dated 2010)
